Molecular target: CRAC channel (Homo sapiens, UniProt Q96D31)
Assay: SOCE in T cells
Format: cell-based
Design: endogenous in cells; host or cells: HEK293T
Settings: 10 μM
Protocol: The effects of BTP2, WRG-28, Av, and CM-4620 on SOCE were evaluated in T cells (FIG. 4A) and macrophages (FIG. 4E). Cells were cultured on glass-bottom 96-well plates and pretreated with various compounds (10 μM) while being loaded with Fura 2-AM. Subsequently, the cytosolic calcium signal waves were recorded, and the second peak of each wave and rate of entry were assessed. Each bar represents the mean value derived from, 43 to 111 cells for T cells (FIG. 4A), and 52 to 91 cells for macrophages (FIG. 4E). Cytokine induction in T cells and macrophages was conducted as described in the methods section. The levels of cytokines, including IL-2, TNF-α, and IL-6 in the culture medium were assessed using ELISA kits for T cells (FIG. 4B, FIG. 4C, and FIG. 4D) and macrophages (FIG. 4F, FIG. 4G, and FIG. 4H), respectively. Each bar represents the mean±SEM. In all the graphs, *, **, and *** denote p-values of <0.05, 0.01, and 0.001, respectively. […]
Cells cultured on a glass-bottom 96 well plate for 48 hours were treated with different compounds (10 μM) and Fura 2-AM (1 μM) simultaneously in a solution containing 145 mM NaCl, 2.8 mM KCl, 2 mM CaCl2, 2 mM MgCl2, 10 mM D-glucose, 10 mM HEPES, pH 7.4 for 40 minutes in the dark. […] All the images were analyzed by using IGOR Pro software. […]

Sequence of CRAC channel (Q96D31 whole entry): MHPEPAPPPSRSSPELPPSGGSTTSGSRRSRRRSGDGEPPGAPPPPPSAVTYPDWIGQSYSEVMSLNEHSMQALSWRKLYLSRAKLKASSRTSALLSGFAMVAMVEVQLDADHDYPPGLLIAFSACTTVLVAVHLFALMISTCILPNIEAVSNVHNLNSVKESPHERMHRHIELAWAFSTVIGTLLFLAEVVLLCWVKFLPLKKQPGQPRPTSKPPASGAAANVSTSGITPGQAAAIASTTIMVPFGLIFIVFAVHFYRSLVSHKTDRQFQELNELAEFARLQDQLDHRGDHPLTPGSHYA

## CCNS(=O)(=O)c1ccc(COc2ccc3nc4ccc(=O)cc-4oc3c2)cc1 [WRG-28]
  SOCE in T cells: higher efficacy compared to Av
